Experiments:
[1] = test system: acute inflammation (PMN infiltration, pro-inflammatory cytokines); settings: mouse model of acute inflammation, cited from earlier work
[2] = test system: periodontal disease and bone loss (intrabony defects around second and fourth premolars); experiment: Minipig periodontal disease model: periodontal flap surgery with a single application, μCT and conventional radiographic imaging; type: in vivo, minipigs (Hanford)
Procedure: The Institutional Animal Care Committee at the Forsyth Institute and PARF, Inc reviewed and approved the animal protocol prior any study activities. Two adult (18-24 months old) female minipigs (Hanford) were purchased and acclimatized for at least 7 days before any procedures. All surgical and follow up procedures and housing throughout the study duration (about 6 months including disease induction period) were performed at an animal and surgical facility at PARF, Inc.
Anesthesia and surgical procedures were conducted as described in Hasturk H, Kantarci A, Ghattas M, Schmidt M, Giordano R, Ashman A, Diekwisch T, Van Dyke T E. The Use of Light/Chemically-Hardened Poly-Methyl-Methacrylate, Poly-Hydroxyl-Ethyl-Methacrylate and Calcium Hydroxide Graft Material in Combination with Polyanhydride around Implants in Minipigs: Part I: Immediate Stability and Function. J Periodontol. 2011 September; 82(9):1339-1352, which is incorporated by reference in its entirety herein. Briefly, minipigs were premedicated with Telazol (4-6 mg/kg IM) and xylazine (2.2 mg/kg IM) and were maintained by 3-4% isoflurane for induction and 0.5-2% isoflurane for maintenance. Each pig was anesthetized for approximately two hours during ligature placement and intraoral photographs. Endotracheal intubation was performed whenever the pig was fully anesthetized. Periodontal disease and bone loss were induced by creating intrabony defects using burs and ligatures in all four quadrants around the same teeth (second and fourth premolars) (FIG. 2A). After ligature placement, animals were fed with soft diet to stimulate plaque accumulation around ligatures for 6 weeks.
Oral examination, including digital photographs, were repeated at 2 and 4 weeks and ligatures were removed at 6 weeks. The sites were left untreated for about 38 days to stabilize the periodontal disease and bone loss obtained and to eliminate the self healing aspect of the bone defects. Accordingly, the defects were chronically created for the baseline treatments (FIG. 2B).
At Day 0 (baseline), the minipigs were anesthetized as described above. […]

[3] = test system: periodontitis and inflammation-induced bone destruction; settings: rabbit periodontitis; cited from earlier work

## 9,12 benzo-LXA4 [9,12, benzo LXA4]
[1]; in vivo
  levels of pro-inflammatory cytokines: significantly reducing
  polymorphonuclear leukocyte (PMN) infiltration: significantly reducing
[1]
  anti-inflammatory properties: potent anti-inflammatory properties
[2]; applied to debrided chronic periodontal lesion at periodontal flap surgery
  number of applications after which oral osteogenesis effects were observed: observed after only a single application
[2]; surgery plus 9,12 benzo LXA4 vs surgery alone (FIG. 3)
  bone regeneration by conventional radiographic imaging of teeth: regenerated bone to essentially pre-disease levels
[2]; surgery plus 9,12 benzo LXA4 vs surgery alone, 0.1-1 μM, light gel, applied at flap surgery, bone covering root notches (FIG. 3)
  bone osteogenesis by micro-computed tomography (μCT) imaging of teeth: induction of bone osteogenesis following LXA4 treatment was observed

## CC[C@@H](O)/C=C/C=C\C[C@@H](O)/C=C/C=C/C=C\[C@@H](O)CCCC(=O)O [resolvin E1 (RVE1), resolvin E1]
[3]
  bone loss: protects from bone loss
  inflammation: reduces inflammation
  tissue regeneration: stimulates tissue regeneration
